{"source": "paper PMC6036132", "about": "“In Silico Workflow for the Discovery of Natural Products Activating the G Protein-Coupled Bile Acid Receptor 1” (Frontiers in Chemistry, 2018)", "target": "T1, G protein-coupled bile acid receptor 1 (GPBAR1) (Homo sapiens, UniProt Q8TDU6)", "T1 construct": "full-length GPBAR1 expression plasmid (Origene), transiently transfected in HEK 293T cells with CRE-Luc and EGFP plasmids", "T1 sequence (Q8TDU6 1-330)": "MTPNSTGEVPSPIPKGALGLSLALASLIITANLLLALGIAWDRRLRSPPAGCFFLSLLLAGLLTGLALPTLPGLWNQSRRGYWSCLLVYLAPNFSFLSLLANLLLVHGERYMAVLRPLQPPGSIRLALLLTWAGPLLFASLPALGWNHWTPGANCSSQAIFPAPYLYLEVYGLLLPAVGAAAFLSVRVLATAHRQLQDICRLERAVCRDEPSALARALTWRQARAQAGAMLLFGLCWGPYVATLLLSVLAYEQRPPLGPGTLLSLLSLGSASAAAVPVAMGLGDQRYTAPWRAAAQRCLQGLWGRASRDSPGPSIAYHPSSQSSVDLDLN", "test": "CRE-luciferase reporter assay in transfected HEK […] cells, EGFP-normalised", "assay_type": "cell-based", "settings": "agonist; 18 h; relative to 10 μM LCA = 100%"}
{"smiles": "C[C@H](CCC(=O)O)[C@H]1CC[C@H]2[C@@H]3[C@H](O)C[C@@H]4C[C@H](O)CC[C@]4(C)[C@H]3CC[C@]12C", "note": "[compound 3, chenodeoxycholic acid]", "values": [{"measurement": "Activity (at 5 μM)", "result": "66.69 ± 8.72", "unit": "%"}]}
